Results: BindingDB's records for doi:10.1021/jm301022v (F. Hoffmann-La Roche, 2012)

Experiment: Antagonist activity at LPA1 in human lung fibroblasts assessed as inhibition of LPA-induced contraction after 18 hrs by 3D collagen gel contraction assay

SMILES	IC50 [nM]
C[C@@H](OC(=O)Nc1c(-c2ccc(C3CCC(CC(=O)O)CC3)cc2)nnn1C)c1ccccc1 (stereo partly drawn)	220
C[C@@H](OC(=O)Nc1c(-c2ccc(-c3ccc(C4(C(=O)O)CC4)cc3)cc2)nnn1C)c1cccc(C(F)(F)F)c1	340
C[C@@H](OC(=O)Nc1c(-c2ccc(-c3ccc(C4(C(=O)O)CC4)cc3)cc2F)nnn1C)c1ccccc1	20
C[C@@H](OC(=O)Nc1c(-c2ccc(-c3ccc(C4(C(=O)O)CC4)cc3)cc2)nnn1C)c1ccccc1	20
C[C@@H](OC(=O)Nc1c(-c2ccc(-c3ccc(CC(=O)O)cc3)cc2)nnn1C)c1ccccc1	390
Cc1nnn(-c2ccc(-c3ccc(C4(C(=O)O)CC4)cc3)cc2)c1NC(=O)O[C@H](C)c1ccccc1	100
Cc1noc(-c2ccc(-c3ccc(CC(=O)O)cc3)cc2)c1NC(=O)O[C@H](C)c1ccccc1	150
Cc1noc(-c2ccc(CSCCC(=O)O)cc2)c1NC(=O)OC(C)c1ccccc1Cl (stereo not drawn) [3-(4-(4-((1-(2-chlorophenyl)ethoxy)carbonylamino)-3-methylisoxazol-5-yl)benzylthio)propanoic acid]	160
